The source of these data is patent US20180362485A1, “N-HYDROXYFORMAMIDE COMPOUNDS AND COMPOSITIONS COMPRISING THEM FOR USE AS BMP l, TLL1 AND/OR TLL2 INHIBITORS” (GlaxoSmithKline Intellectual Property (No. 2) Limited, priority 2015, published 2018).

The target in one experiment is T1, human TLL2 (Homo sapiens, UniProt Q9Y6L7).
T1 construct: amino acids 26-1015 of human TLL2 (NM_012465); made in house
T1 sequence (Q9Y6L7 150-1015): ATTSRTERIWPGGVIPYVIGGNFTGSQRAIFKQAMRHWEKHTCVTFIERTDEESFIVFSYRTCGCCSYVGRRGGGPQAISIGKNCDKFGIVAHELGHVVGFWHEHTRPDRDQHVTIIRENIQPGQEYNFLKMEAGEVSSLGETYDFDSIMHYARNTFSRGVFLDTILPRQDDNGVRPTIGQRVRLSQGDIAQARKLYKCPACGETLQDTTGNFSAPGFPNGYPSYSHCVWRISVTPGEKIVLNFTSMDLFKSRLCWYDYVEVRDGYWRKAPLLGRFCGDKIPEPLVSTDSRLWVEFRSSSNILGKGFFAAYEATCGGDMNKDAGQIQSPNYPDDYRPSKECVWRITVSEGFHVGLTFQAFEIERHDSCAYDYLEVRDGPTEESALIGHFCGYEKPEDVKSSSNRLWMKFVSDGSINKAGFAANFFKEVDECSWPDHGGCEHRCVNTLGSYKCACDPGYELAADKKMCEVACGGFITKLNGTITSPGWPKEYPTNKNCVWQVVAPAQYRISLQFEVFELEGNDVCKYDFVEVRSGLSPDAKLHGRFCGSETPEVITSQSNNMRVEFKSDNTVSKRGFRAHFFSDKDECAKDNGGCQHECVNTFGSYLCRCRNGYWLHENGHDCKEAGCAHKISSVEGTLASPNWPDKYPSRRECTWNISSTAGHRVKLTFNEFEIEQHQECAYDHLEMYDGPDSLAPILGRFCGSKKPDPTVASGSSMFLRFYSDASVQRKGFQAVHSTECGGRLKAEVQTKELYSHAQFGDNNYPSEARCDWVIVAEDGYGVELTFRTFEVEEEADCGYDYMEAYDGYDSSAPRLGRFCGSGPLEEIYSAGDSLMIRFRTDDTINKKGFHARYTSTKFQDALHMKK
The experiment can be described thus: Enzyme inhibition assay for human TLL2. The experiment is classed as biochemical. The following applies: 18 nM TLL2, 5 μM promyostatin peptide substrate; read-out: pIC50, TLL2 enzyme inhibition assay (converted). The text has this:
Buffer components are purchased from Sigma-Aldrich (St. Louis, Mo.) or an equivalent supplier. The promyostatin peptide substrate is custom synthesized by American Peptide Company (Sunnyvale, Calif.) using the myostatin protein sequence (Uniprot accession number 014793) surrounding the cleavage site reviewed in Hopkins, D. R., et al., 2007 Matrix Biology, 26, 508-523. The procollagen peptide substrate used in the high enzyme BMP1 cleavage assay is custom synthesized by 21st Century Biochemicals (Marlboro, Mass.) using the procollagen Iα protein sequence (Uniprot accession number P02452) surrounding the cleavage site reviewed in Hopkins, D. R., et al., 2007 Matrix Biology, 26, 508-523.
The DNA sequence encoding amino acids 26-1015 of human TLL2 (NM_012465) is PCR amplified from DNA template with the human RAGE signal sequence at the N-terminus and Avi-6×His epitope tags at the C-terminus ([…]). […]
Inhibition of human TLL1 and TLL2 recombinant enzymes is measured in 10 ul endpoint assays in 384-well format using the same promyostatin peptide substrate employed in the above Enzyme Inhibition Assay for human BMP1. […] TLL1 and TLL2 reactions are quenched with 5 μl of 0.5 M EDTA and plates are read on a ViewLux (Perkin Elmer) multilabel plate reader using a 480 nm excitation filter and 540 nm emission filter. […]

Experiment [1] concerns deposition of mature collagen. The experiment can be described thus: Cell-based inhibition assay of mature collagen deposition (immunostaining). The following applies: Cardiac fibroblast; human cardiac fibroblasts, immunostaining of mature collagen I; read-out: pIC50, mature collagen cellular inhibition assay (converted). The protocol: An adaptation of the collagen deposition assay described by Chen, C. Z. C., et al., British Journal of Pharmacology, 2009, 158, 1196-1209 is used to examine effect of compounds on procollagen I processing and collagen deposition. In the adapted assay, human cardiac fibroblasts are utilized. Processing of procollagen I is determined by a PICP ELISA assay and deposition of mature collagen is determined by immunostaining.
Human cardiac fibroblasts are cultured and maintained until passage 6 in FGM-3 media (Lonza, #CC-3132) in a 37° C. humidified incubator with 5% CO2. They are then seeded in 96-well black wall, clear bottom plates at 10,000 to 15,000 cells per well in eagle's minimum essential media (EMEM, ATCC #30-2003) containing 10% fetal bovine serum (FBS, Life Technologies #10082147), 1% Glutamax (Life Technologies #35050061) and 1% Penicillin and Streptomycin (Life Technologies #15070063). These cultures are placed in 37° C. incubator. The next day, media is removed by aspiration and cells are rinsed with phosphate buffered saline. Crowding media (also called ficoll media) is prepared by adding 112.5 mg/ml of ficoll70 and 75 mg/ml ficoll400 (GE healthcare #17-0310-10 and 17-0300-10, respectively), 100 μM ascorbic acid, 1% Glutamax and 1% Penicillin and Streptomycin to EMEM media. Test compounds (dissolved in DMSO) are diluted into crowding media and then added to the cells. Final concentration of DMSO in crowding media is less than 0.3%. Cells are treated for 24 to 48 hr in a 37° C. incubator. At the end of the treatment period, cell media are collected. The level of PICP in the media is determined by a PICP ELISA assay (Quidel #8003) following the manufacturer's protocol. Potencies of test compounds are calculated by fitting PICP levels, relative to untreated controls, to log (inhibitor) vs. response equation using Graphpad Prism software 5.0 and expressed as pIC50.
For some compounds, deposition of mature collagen is measured by immunostaining in addition to PICP levels. At the end of the treatment period, cells on culture plate are fixed with 100% methanol (prechilled to −20° C.) for 10 min. Then the cells are immunostained with mouse anti-mature collagen I antibody (1:500 dilution, Sigma#C2456), anti-mouse secondary antibody Alexa647 (1:500 dilution, Invitrogen#A21236) and Hoechst (for nuclei, 2 μg/ml, Invitrogen#H3596). Fluorescent image acquisition is done using the Operetta High Content Imaging system (Perkin Elmer). For each image field, the intensity of mature collagen staining is normalized with the number of nuclei. Normalized collagen levels are used to calculate the potency of test compounds with Graphpad Prism software, as described above.

Where only a bound is given, the exact number is not on record here.

Consider `CCCCC[C@@H](C(=O)NCNC(=O)c1ccc(-c2ccccc2)o1)[C@@H](CC)N(O)C=O` [WO2015/104684 Example 24, N—(((R)-2-((R)-1-(N-hydroxyformamido)propyl)heptanamido)methyl)-5-phenylfuran-2-carboxamide], for which the IC50 on human TLL2 is < 794 nM; in experiment [1], < 1000 nM.
